In paper PMC8158775, “Structure–Activity Relationship Assessment of Sophorolipid Ester Derivatives against Model Bacteria Strains” (Molecules, 2021):
In brackets after ≈: the same amount, converted by molar mass. Entries after “also recorded” stand apart in the source; their conditions may differ. Where two headings read alike, the source gives them in different places.

Experiments:
[1] = tested on: Bacillus subtilis (ATCC 21332); assay: Minimum inhibitory concentration (microdilution); format: cell-based; conditions: read-out: MIC B. subtilis
Protocol: (§1) Bacteria strains Staphylococcus aureus (ATCC 33807), Bacillus cereus (ATCC 4342), Bacillus subtilis (ATCC 21332), Listeria innocua (ATCC 33090), and Escherichia coli (ATCC 53323) were provided by Ravi Kane’s lab at Rensselaer Polytechnic Institute. Mueller–Hinton broth (MHB) was used for the Staphylococcus aureus culture, while tryptic soy broth (TSB) was used for the other strains. All strains were grown to the stationary phase for 24 h at 37 °C with agitation at 220 rpm. After overnight incubation, cultures were diluted to 5 × 10^6 CFU/mL prior to use.
(§2) The minimum inhibitory concentration (MIC) was determined using the microdilution technique. Modified sophorolipid (SL) derivatives were dissolved in DMSO to make 2 M stock solutions. A dilution series was made by diluting the stock solution to a range of concentrations from 200 µM to 4 µM and a final volume of 100 μL in 10% DMSO/phosphate-buffered saline (PBS) in each well of a 96-well plate. Bacterial inocula (100 μL, 5 × 10^6 CFU/mL) were added to each well, and the final DMSO concentration was 5%. Wells containing the same volumes of DMSO/PBS buffer and culture medium, with and without bacteria, were used as positive and negative controls, respectively. Streptomycin was used for comparison. The plate was then incubated with shaking for 16–30 h at 37 °C to ensure that cultures had reached stationary phase growth and the absorbance readings were recorded at a wavelength of 600 nm using an absorbance microplate reader. Absorbance data from 16–30 h were used to calculate the percent inhibition for each test condition. MIC was recorded as the lowest concentration of drug that inhibited more than 90% of bacterial growth. All assays were carried out in triplicate.

[2] = tested on: Listeria innocua (ATCC 33090); assay: Minimum inhibitory concentration (microdilution); format: cell-based; conditions: read-out: MIC L. innocua
Protocol: as §1, §2

[3] = tested on: Bacillus cereus (ATCC 4342); assay: Minimum inhibitory concentration (microdilution); format: cell-based; conditions: read-out: MIC B. cereus
Protocol: as §1, §2

[4] = tested on: Escherichia coli (ATCC 53323); assay: Minimum inhibitory concentration (microdilution); format: cell-based; conditions: read-out: MIC E. coli
Protocol: as §1, §2

[5] = tested on: M1 activated macrophages (AMOs) from Raw 254.7 murine macrophages; assay: In vitro cytotoxicity study; format: cell-based; conditions: for cytotoxicity ranking: comparison within SL series
Source text: A potential antimicrobial candidate must selectively kill pathogen cells without harming the host mammalian cells. To test the ability of SLs to effectively discriminate between bacteria and mammalian cells, a cytotoxicity assay was previously reported by our team. […] The therapeutic index (TI) is a parameter commonly used to determine potential drug selectivity. […] Generally, membrane-active agents are not considered for systemic administration directly, because of relatively low selectivity. Thus, designing suitable formulations and selecting suitable dose ranges are important in drug development.

[6] = tested on: Staphylococcus aureus (ATCC 33807); assay: Minimum inhibitory concentration (microdilution); format: cell-based; conditions: read-out: MIC S. aureus
Protocol: as §1, §2

B. cereus cell membrane = assay: Dye leakage / membrane depolarization assay with diS-C3(5); format: cell-based, Bacillus cereus; conditions: 40 μg/mL (58–60 μM), t = 60 min, diS-C3(5) probe; listed as LSL
Protocol: To probe the role of LSL and the SL-esters as membrane-active agents, dye leakage experiments were carried out. Polymyxin B, a well-known membrane-active agent, was used as a positive control. Polymyxin B is a cyclic peptide with long, hydrophobic tails that can insert into cell membranes causing cell lysis. First, time-course membrane-depolarizing studies were conducted (Figure 3A). […] Upon addition of B. cereus cells at 2 min, a rapid decay in fluorescence intensity was observed due to self-quenching caused by migration of the probe into membranes. Subsequent addition of the SL-esters at 4 min led to a sharp increase in the fluorescence signal, thus indicating enhanced permeability of the cell membrane driven by the presence of the SL derivative.
The disruption of bacterial membranes after treatment with LSL and SL-ester derivatives was tested using a fluorescence probe, diS-C3(5), which can be quenched by the electrically polarized membrane. B. Cereus grown to mid-log phase was adjusted to 2.5 × 10^6 CFU/mL in fresh MHB. […] Fluorescence data were recorded at 670 nm with excitation at 622 nm on Molecular Devices SPECTRAmax Plus 384 UV-VIS High Throughput Microplate Spectrophotometer and normalized against the negative control.

[7] = Bacillus subtilis, ATCC21332, incubation time 16 h, lowest concentration inhibiting more than 90% of bacterial growth
[8] = Listeria innocua, ATCC33090, incubation time 30 h, lowest concentration inhibiting more than 90% of bacterial growth
[9] = Bacillus cereus, ATCC4342, incubation time 16 h, lowest concentration inhibiting more than 90% of bacterial growth
[10] = Escherichia coli, ATCC53323, incubation time 16 h, lowest concentration inhibiting more than 90% of bacterial growth
[11] = Staphylococcus aureus, ATCC33807, incubation time 16 h, lowest concentration inhibiting more than 90% of bacterial growth
[12] = incubation time 16 h, lowest concentration inhibiting more than 90% of bacterial growth
[13] = 16 h incubation, procedure of ref 17
[14] = incubation time 30 h, lowest concentration inhibiting more than 90% of bacterial growth

Structure (SMILES) | MIC [1, 7] | MIC [2, 8] | MIC [3, 9] | MIC [4, 10] | MIC [6, 11] | also measured
CCOC(=O)CCCCCCC/C=C\CCCCCCC(C)OC1OC(COC(C)=O)C(O)C(O)C1OC1OC(COC(C)=O)C(O)C(O)C1O (stereo not shown) [ESL-(6′Ac, 6″Ac)] | > 200 µM | > 200 µM | 12 µM (≈ 8.82 µg/mL) | > 200 µM | – | –
CCOC(=O)CCCCCCC/C=C\CCCCCCC(C)OC1OC(COC(C)=O)C(O)C(O)C1OC1OC(CO)C(O)C(O)C1O (stereo not shown) [ESL-(6′Ac, 6″OH)] | 25 µM (≈ 17.3 µg/mL) | 25 µM (≈ 17.3 µg/mL) | 25 µM (≈ 17.3 µg/mL) | > 200 µM | – | –
CCOC(=O)CCCCCCC/C=C\CCCCCCC(C)OC1OC(CO)C(O)C(O)C1OC1OC(COC(C)=O)C(O)C(O)C1O (stereo not shown) [ESL-(6′OH, 6″Ac)] | 25 µM (≈ 17.3 µg/mL) | 25 µM (≈ 17.3 µg/mL) | 25 µM (≈ 17.3 µg/mL) | > 200 µM | – | –
CC(=O)OCC1OC2OC(C)CCCCCC/C=C\CCCCCCCC(=O)OC3C(COC(C)=O)OC(OC2C(O)C1O)C(O)C3O (stereo not shown) [Lactonic SL, reference compound] | 12 µM (≈ 8.27 µg/mL) | 50 µM (≈ 34.4 µg/mL) | 25 µM (≈ 17.2 µg/mL) | > 200 µM | 25 µM (≈ 17.2 µg/mL) | reduction in cell viability ([5]; at 50 µM, procedure of ref 17): roughly 50%; cytotoxicity ranking [5]: highest cytotoxicity; MIC [4, 12]: > 200 µM; ability to enhance cell membrane permeability (endpoint fluorescence) (B. cereus cell membrane): non-significant ability to enhance cell membrane permeability; also recorded: failed to enhance membrane permeability
CCCCOC(=O)CCCCCCC/C=C\CCCCCCC(C)OC1OC(CO)C(O)C(O)C1OC1OC(CO)C(O)C(O)C1O (stereo not shown) [SL-butyl ester] | 12 µM (≈ 8.15 µg/mL) | 12 µM (≈ 8.15 µg/mL) | 12 µM (≈ 8.15 µg/mL) | > 200 µM | 100 µM (≈ 67.9 µg/mL) | concentration up to which low to no cytotoxicity [5, 13]: 100 to 200 µM; MIC [1, 12]: 12 µM (≈ 8.15 µg/mL); MIC [2, 14]: 12 µM (≈ 8.15 µg/mL); MIC [6, 12]: 100 µM (≈ 67.9 µg/mL); MIC [3, 12]: 12 µM (≈ 8.15 µg/mL)
CCOC(=O)CCCCCCC/C=C\CCCCCCC(C)OC1OC(CO)C(O)C(O)C1OC1OC(CO)C(O)C(O)C1O (stereo not shown) [SL-ethyl ester] | 50 µM (≈ 32.5 µg/mL) | 50 µM (≈ 32.5 µg/mL) | 50 µM (≈ 32.5 µg/mL) | > 200 µM | 200 µM (≈ 130 µg/mL) | concentration up to which low to no cytotoxicity [5, 13]: 100 to 200 µM
CCCCCCOC(=O)CCCCCCC/C=C\CCCCCCC(C)OC1OC(CO)C(O)C(O)C1OC1OC(CO)C(O)C(O)C1O (stereo not shown) [SL-hexyl ester] | > 200 µM | > 200 µM | > 200 µM | > 200 µM | > 200 µM | MIC [1, 12]: > 200 µM; MIC [2, 14]: > 200 µM; MIC [6, 12]: > 200 µM; MIC [3, 12]: > 200 µM
COC(=O)CCCCCCC/C=C\CCCCCCC(C)OC1OC(CO)C(O)C(O)C1OC1OC(CO)C(O)C(O)C1O (stereo not shown) [SL-methyl ester] | – | – | – | – | – | cell reduction ([5]; 400 µM, 16 h incubation, procedure of ref 17): no significant cell reduction; cytotoxicity ranking [5]: lowest toxicity; MIC ([1]; Bacillus subtilis, ATCC21332, 16 h): 50 µM (≈ 31.8 µg/mL); MIC [1, 12]: 50 µM (≈ 31.8 µg/mL); MIC ([2]; Listeria innocua, ATCC33090, 30 h): 100 µM (≈ 63.7 µg/mL); MIC [2, 14]: 100 µM (≈ 63.7 µg/mL); MIC ([6]; Staphylococcus aureus, ATCC33807, 16 h): 200 µM (≈ 127 µg/mL); MIC [6, 12]: 200 µM (≈ 127 µg/mL); MIC ([3]; Bacillus cereus, ATCC4342, 16 h): 50 µM (≈ 31.8 µg/mL); MIC [3, 12]: 50 µM (≈ 31.8 µg/mL); MIC ([4]; Escherichia coli, ATCC53323, 16 h): > 200 µM
CCCCCOC(=O)CCCCCCC/C=C\CCCCCCC(C)OC1OC(CO)C(O)C(O)C1OC1OC(CO)C(O)C(O)C1O (stereo not shown) [SL-pentyl ester] | > 200 µM | 12 µM (≈ 8.31 µg/mL) | 12 µM (≈ 8.31 µg/mL) | > 200 µM | > 200 µM | –
CCCOC(=O)CCCCCCC/C=C\CCCCCCC(C)OC1OC(CO)C(O)C(O)C1OC1OC(CO)C(O)C(O)C1O (stereo not shown) [SL-propyl ester] | 25 µM (≈ 16.6 µg/mL) | 25 µM (≈ 16.6 µg/mL) | 25 µM (≈ 16.6 µg/mL) | > 200 µM | 100 µM (≈ 66.5 µg/mL) | concentration up to which low to no cytotoxicity [5, 13]: 100 to 200 µM
[H]/N=C(/N)N[C@H]1[C@H](O)[C@@H](O)[C@H](O[C@@H]2O[C@@H](C)[C@](O)(C=O)[C@H]2O[C@@H]2O[C@@H](CO)[C@H](O)[C@@H](O)[C@@H]2NC)[C@@H](N/C(N)=N\[H])[C@@H]1O [Streptomycin, reference compound] | 12 µM (≈ 6.98 µg/mL) | 24 µM (≈ 14 µg/mL) | 12 µM (≈ 6.98 µg/mL) | 12 µM (≈ 6.98 µg/mL) | 3 µM (≈ 1.74 µg/mL) | –
